Series [1] has as its system A2780. The experiment in a line: cells. As to conditions: Homo sapiens, A2780, 72 h.
Series [2] can be described thus: Anticancer activity against human NYH/VM cells assessed as reduction in cell growth. Type of series: functional, cell-based.
Series [3] relates to PC-3. The experiment in a line: Anticancer activity against human PC-3 cells. Type of series: functional, cell-based.
In series [4] the test system is HCT-116. Nature of the series: Anticancer activity against human HCT-116 cells assessed as reduction in cell growth. Type of series: functional, cell-based.
For series [5], the target named is T1, Nicotinamide phosphoribosyltransferase (Homo sapiens, UniProt P43490). Nature of the series: Activation of N-terminal His-tagged human NAMPT expressed in Escherichia coli BL 21 (DE3) using NAM and PRPP as substrates incubated for 15 mins in presence of ATP by fluorescence based spectrometer analysis.
In series [6] the target is Cytochrome P450 2C9 (Homo sapiens, UniProt P11712). Nature of the series: Inhibition of CYP2C9 (unknown origin). It is filed as ADME.
The target in series [7] is T1, Nicotinamide phosphoribosyltransferase. Nature of the series: Inhibition of NAMPT (unknown origin).
The subject of series [8] is HepG2. The experiment in a line: cells. The conditions noted are these: Homo sapiens, HepG2, 48 h.
For series [9], the target named is T1, Nicotinamide phosphoribosyltransferase. The experiment in a line: Activation of recombinant NAMPT (unknown origin) expressed in Escherichia coli by fluorescence based spectrometer analysis.
Series [10] addresses T2, Protein cereblon/Nicotinamide phosphoribosyltransferase (Homo sapiens, UniProt P43490+Q96SW2). The experiment in a line: PROTAC activity at CRBN/NAMPT in human Jurkat cells assessed as induction of intracellular NAMPT degradation at 5 uM incubated for 24 hrs by Western blot analysis relative to control. It is filed as cell-based.
Target sequence in this assay (P43490 whole entry, looked up): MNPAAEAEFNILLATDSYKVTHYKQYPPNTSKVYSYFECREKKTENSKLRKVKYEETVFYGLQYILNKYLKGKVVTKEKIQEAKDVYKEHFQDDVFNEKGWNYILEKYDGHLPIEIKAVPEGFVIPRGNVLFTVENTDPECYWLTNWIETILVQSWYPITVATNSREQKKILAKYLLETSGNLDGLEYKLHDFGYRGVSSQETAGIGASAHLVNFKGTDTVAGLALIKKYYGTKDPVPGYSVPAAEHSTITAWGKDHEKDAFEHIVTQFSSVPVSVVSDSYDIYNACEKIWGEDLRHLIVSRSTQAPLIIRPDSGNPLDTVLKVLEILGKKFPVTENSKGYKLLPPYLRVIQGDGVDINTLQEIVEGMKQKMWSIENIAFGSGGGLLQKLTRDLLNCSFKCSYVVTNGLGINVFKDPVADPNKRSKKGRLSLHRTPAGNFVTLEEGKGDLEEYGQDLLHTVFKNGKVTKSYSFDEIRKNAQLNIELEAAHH
Target sequence in this assay (Q96SW2 whole entry, looked up): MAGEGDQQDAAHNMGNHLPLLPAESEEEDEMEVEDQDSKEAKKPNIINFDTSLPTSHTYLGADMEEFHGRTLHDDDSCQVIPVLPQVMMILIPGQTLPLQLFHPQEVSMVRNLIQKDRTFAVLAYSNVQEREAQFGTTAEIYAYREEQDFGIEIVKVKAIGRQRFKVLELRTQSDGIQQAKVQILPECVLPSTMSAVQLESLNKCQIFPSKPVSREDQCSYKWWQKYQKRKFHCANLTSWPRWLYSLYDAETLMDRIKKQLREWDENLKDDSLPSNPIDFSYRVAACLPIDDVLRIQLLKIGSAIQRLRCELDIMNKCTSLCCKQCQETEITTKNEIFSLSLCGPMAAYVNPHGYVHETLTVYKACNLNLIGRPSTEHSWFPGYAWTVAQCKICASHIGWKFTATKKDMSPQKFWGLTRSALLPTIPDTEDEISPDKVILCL
Series [11] concerns the target T2, Protein cereblon/Nicotinamide phosphoribosyltransferase. The experiment in a line: PROTAC activity at CRBN/NAMPT in human Jurkat cells assessed as induction of intracellular NAMPT degradation incubated for 24 hrs by Western blot analysis. It is filed as cell-based.
Target sequence in this assay (P43490 whole entry): as the sequence (P43490 whole entry, looked up) above
Target sequence in this assay (Q96SW2 whole entry): as the sequence (Q96SW2 whole entry, looked up) above
Series [12] deals with Nicotinamide phosphoribosyltransferase (Mus musculus) (UniProt Q99KQ4). Nature of the series: Activation of N-terminal 6His-tagged mouse NAMPT assessed as increase in intracellular NAD+ level measured for 20 mins by fluorescence based spectrometer analysis relative to control. Type of series: cell-based. The conditions noted are these: filed as activator.
The target in series [13] is Nicotinamide phosphoribosyltransferase (Mus musculus, UniProt Q99KQ4). The experiment in a line: Activation of N-terminal 6His-tagged mouse NAMPT measured for 20 mins by fluorescence based spectrometer analysis.

Where only a bound is given, the exact number is not on record here.

T1 sequence (P43490 whole entry): as the sequence (P43490 whole entry, looked up) above
Cytochrome P450 2C9, sequence (P11712 whole entry): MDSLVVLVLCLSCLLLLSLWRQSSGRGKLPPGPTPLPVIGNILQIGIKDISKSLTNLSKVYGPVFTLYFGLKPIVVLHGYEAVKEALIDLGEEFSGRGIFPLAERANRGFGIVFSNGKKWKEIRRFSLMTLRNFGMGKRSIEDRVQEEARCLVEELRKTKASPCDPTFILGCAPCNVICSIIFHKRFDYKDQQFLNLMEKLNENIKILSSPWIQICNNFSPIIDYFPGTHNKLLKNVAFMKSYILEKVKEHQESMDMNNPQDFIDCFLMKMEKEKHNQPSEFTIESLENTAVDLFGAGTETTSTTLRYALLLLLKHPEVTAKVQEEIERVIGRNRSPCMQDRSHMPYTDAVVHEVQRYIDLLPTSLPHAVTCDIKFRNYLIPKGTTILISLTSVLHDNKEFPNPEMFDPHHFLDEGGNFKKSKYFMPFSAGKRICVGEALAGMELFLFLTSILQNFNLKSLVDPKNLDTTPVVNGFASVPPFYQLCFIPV
Nicotinamide phosphoribosyltransferase (Mus musculus), sequence (Q99KQ4 whole entry, looked up): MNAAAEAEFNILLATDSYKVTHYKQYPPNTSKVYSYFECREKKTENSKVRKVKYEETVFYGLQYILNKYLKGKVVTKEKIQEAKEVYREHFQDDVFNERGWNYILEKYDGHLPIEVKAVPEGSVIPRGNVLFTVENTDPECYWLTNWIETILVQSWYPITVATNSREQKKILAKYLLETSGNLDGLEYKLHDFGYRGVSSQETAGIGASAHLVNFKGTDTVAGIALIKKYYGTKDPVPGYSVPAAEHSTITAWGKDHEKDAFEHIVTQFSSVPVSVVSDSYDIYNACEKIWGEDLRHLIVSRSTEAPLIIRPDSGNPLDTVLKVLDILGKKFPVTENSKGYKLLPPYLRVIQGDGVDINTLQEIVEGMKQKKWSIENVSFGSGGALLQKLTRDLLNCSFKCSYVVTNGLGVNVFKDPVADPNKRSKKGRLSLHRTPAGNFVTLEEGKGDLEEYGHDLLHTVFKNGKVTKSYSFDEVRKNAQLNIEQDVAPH
Nicotinamide phosphoribosyltransferase (Mus musculus, UniProt Q99KQ4), sequence (Q99KQ4 whole entry): as the sequence (Q99KQ4 whole entry, looked up) above

The compound `O=S(=O)(c1ccc(CNc2ccc3cccn3c2)cc1)c1cc(F)cc(F)c1` had an IC50 in series [1] of 360 nM.
With `N#C/N=C(\NCCCCCCC(=O)N(Cc1ccccc1)OC1CCCCC1)Nc1ccncc1`, the IC50 was 0.02 nM in [2], 0.3 nM in series [3] and 0.4 nM in series [4].
With `CCN(CC)C(=O)c1noc2cc(NC(=O)NCc3cnco3)ccc12`, the EC50 in [5] came to 180 nM.
In turn, `O=C(NC[C@@H]1CCOC1)c1ccc(NC(=O)N2Cc3ccccc3C2)cc1` showed an IC50 in series [6] of over 20000 nM.
In the case of `Nc1ccc(/C=C/C(=O)NCc2cc3cc(-c4ccc(C(=O)N5CCC(F)(F)CC5)cc4)cc(-c4ccc(F)cc4)c3o2)cn1` [PADNARSERTIB], in series [7], the IC50 worked out at 120 nM.
Turning to `CCCn1c(=O)c(-c2ccc(C(=O)NCc3cccnc3)cc2)nc2ccccc21`, in series [8], the IC50 was 1950 nM.
Take `O=C1C=C2Cc3cc(O)c(O)cc3C(c3ccccc3O)=C2C=C1O`: the EC50 in [9] came to 3500 nM.
With `O=C(/C=C/c1cccnc1)NCCCCC1CCN(C(=O)c2ccc(N3CCN(CCCCCC#Cc4cccc5c4CN(C4CCC(=O)NC4=O)C5=O)CC3)cc2)CC1` (stereo unspecified), the Emax in series [10] was 93.3%. The DC50 in series [11] was under 1 nM.
In the same order, the values of `O=C(/C=C/c1cccnc1)NCCCCC1CCN(C(=O)c2ccc(N3CCN(CCCCCCC#Cc4cccc5c4CN(C4CCC(=O)NC4=O)C5=O)CC3)cc2)CC1` (stereo unspecified) are 92.5% and under 1 nM.
For the compound `Cc1nc2ccccc2n(Cc2ccc(C(=O)NCc3cccnc3)cc2)c1=O`, the IC50 in series [8] is 1690 nM.
Consider `O=C(NCc1ccc(CO)cc1)Nc1ccc(S(=O)(=O)N2CC3CCC(C2)O3)cc1`, for which the Emax in series [12] stood at 247%. The same compound returned an EC50 in [13] of 1490 nM.

For orientation: IC50 means the midpoint of a concentration-inhibition curve. One may read the EC50 as the concentration needed to bring the measured effect to its halfway point. A word on the Emax: it is the greatest response seen or fitted, relative to the assay's reference. By DC50 is commonly meant the midpoint of the concentration-degradation curve.

The values above are taken from ChEMBL document CHEMBL5550086, “Drug discovery targeting nicotinamide phosphoribosyltransferase (NAMPT): Updated progress and perspectives” (Bioorg Med Chem, 2024).
